Results on one molecule are retold here after US20190262457A1, “NOVEL ALKYLATING AGENT” (CHIBA-PREFECTURE, priority 2016, published 2019).

In experiment [1] the test system is cytotoxic T cells (CD8-positive cells) and regulatory T cells (Treg). Nature of the experiment: Ratio of cytotoxic T cells to Treg in the spleen of RKO-transplanted humanized NSG mice (flow cytometer). The class given is in vivo, mouse. The note with it: one week after administration. How it is done: 1×10^7 cells of human PBMC (Precision Bioservices Inc.) were intravenously transplanted to each NSG mouse (NOD.Cg-Prkdc^scidI/2rg^tm1Wj1/SzJ; Charles River Laboratories Japan, Inc.) to prepare a humanized NSG mouse. One week after the PBMC transplantation, 1×10^7 RKO cells (ATCC) were subcutaneously transplanted to each humanized NSG mouse. After the transplantation, CCC07-01 was intravenously administered at 2.3 or 9.2 mg/kg to the mouse when tumorigenesis was able to be confirmed. The tumor size was measured over time, and the tumor volume (mm^3) was calculated according to the expression: Tumor volume=[…]. One week after the CCC07-01 administration, the spleen was harvested and homogenized in 2% FBS/PBS to prepare a cell suspension. The spleen cells were stained with a fluorescently labeled anti-human CD4 antibody, anti-human CD8 antibody and anti-human Foxp3 antibody and analyzed for the numbers of cytotoxic T cells (CD8-positive cells) and regulatory T cells (Treg: CD4-positive and Foxp3-positive cells) using a flow cytometer. Statistical processing was performed by the Mann-Whitney U test, and the significance level was set to P<0.05.
For orientation: Flow cytometry measures light scatter and fluorescence of single cells or particles in a stream.

Experiment [2] has as its system A2058 cells. Nature of the experiment: Cytotoxicity test by WST assay, IC50 24 hours after administration. The class given is cell-based, human. The note with it: WST-8. How it is done:
(§1) From the cell lines mentioned above, a large intestine cancer cell line SW480 was used as cells expressing PD-1, a large intestine cancer cell line RKO was used as cells expressing PD-L1, and a malignant melanoma cell line A2058 and a pancreatic cancer cell line MIA PaCa-2 were used as cells expressing CTLA-4. The cells of each line were inoculated at 3000 cells/well to a 96-well microplate and cultured overnight. On the next day, the cells were treated with CCC07-01 having a concentration of 0.1, 1, 10, 30, 100, 300, or 1000 nM (1 μM) for 24 hours. Then, WST-8 reagent was added to each well using Cell counting kit-8, and the mixture was reacted for 2 hours. Then, the cell count was calculated at a wavelength of 450 nm by the colorimetric analysis method using a microplate reader. The method for calculating the cell count involved: 1) obtaining the mean value of a medium alone, 2) subtracting the mean value of the medium from each well, 3) obtaining the mean value of DMSO, 4) dividing the medium mean value-subtracted value by the mean value of DMSO and then multiplying by 100, and 5) obtaining the mean value of each treatment group and a standard deviation, and preparing a graph. IC50 was calculated according to the following expression: IC50=10(LOG(A/B)×(50−C)/(D−C)+LOG(B) wherein A: a higher concentration of two concentrations sandwiching 50%, B: a lower concentration of two concentrations sandwiching 50%, C: the rate of inhibition at B, and D: the rate of inhibition at A.
(§2) The cells used in the experiment were RKO (large intestine cancer), SW480 (large intestine cancer), A2058 (malignant melanoma), and MIA PaCa-2 (pancreatic cancer).
A general note: Tetrazolium assays rely on reduction of a dye to a coloured formazan, in cell work by metabolically active cells.

In experiment [3] the test system is SW480 cells. The description is as above. The note with it: WST-8. Type of experiment: cell-based, human. How it is done: as §1, §2
Experiment [4] has as its system MIA PaCa-2 cells. The description is as above. The class given is cell-based, human. The note with it: MIA-PaCa2 cells, WST-8. How it is done:
as §1, §2

Experiment [5] concerns RKO cells. The description is as above. The class given is cell-based, human. Conditions: WST-8. How it is done:
as §1, §2

The subject of experiment [6] is CTLA-4 gene. Nature of the experiment: Experiment to silence CTLA-4 gene (semi-quantitative RT-PCR), CCC07-01. The class given is cell-based, human. The note with it: A2058 cells, 10 nM, 24 hours. On the procedure: A2058 or MIA PaCa-2 cells were cultured in a 6-well plate. On the next day, the cells were treated with 0, 1, or 10 nM CCC07-01 for 24 hours. The cells were collected, and total RNA was extracted therefrom. The extraction employed RNeasy Plus Mini Kit (Qiagen N.V., CA). Next, cDNA was prepared by reverse transcription with the extracted RNA as a template according to Super Script VILO cDNA Synthesis kit (Invitrogen Corp., CA). RT-PCR was performed with the cDNA as a template under the following conditions: the conditions involved denaturation at 95° C. for 2 minutes and then 33 cycles each involving 95° C. for 30 seconds, 60° C. for 30 seconds, and 72° C. for 30 seconds, followed by elongation reaction at 72° C. for 5 minutes. For a control, RT-PCR of GAPDH was performed using the same cDNA as above. The conditions for GAPDH involved denaturation at 95° C. for 2 minutes and then 22 cycles each involving 95° C. for 30 seconds, 55° C. for 30 seconds, and 72° C. for 30 seconds, followed by elongation reaction at 72° C. for 5 minutes. Each PCR product was electrophoresed on 2% agarose and then stained with ethidium bromide. The concentration of the band of the PCR product of CTLA-4 was calculated with the GAPDH band as a control using Image J. The concentrations of the PCR products for each concentration of PIP were compared for quantification.

The subject of experiment [7] is PD-1 gene. Nature of the experiment: Experiment to silence PD-1 gene (RT-PCR / real-time PCR). The class given is cell-based, human. Conditions: SW480 cells, 100 nM, 6 hours. On the procedure:
SW480 cells were cultured in a 6-well plate. On the next day, the cells were treated with 0, 1, 10, or 100 nM CCC07-01 for 6 hours. The cells were collected, and total RNA was extracted therefrom. The extraction employed RNeasy Plus Mini Kit (Qiagen N.V., CA). Next, cDNA was prepared by reverse transcription with the extracted RNA as a template according to Super Script VILO cDNA Synthesis kit (Invitrogen Corp., CA). RT-PCR was performed with the cDNA as a template under the following conditions: the conditions for PD-1 involved denaturation at 95° C. and then 33 cycles each involving 95° C. for 30 seconds, 56° C. for 30 seconds, and 72° C. for 30 seconds, followed by elongation reaction at 72° C. for 5 minutes. For a control, RT-PCR of GAPDH was performed using the same cDNA as above. The conditions for GAPDH involved denaturation at 95° C. and then 22 cycles each involving 95° C. for 30 seconds, 55° C. for 30 seconds, and 72° C. for 30 seconds, followed by elongation reaction at 72° C. for 5 minutes.
Each RT-PCR product was electrophoresed on 2% agarose and stained with ethidium bromide. qPCR was further performed. […] A relative expression level was quantified with GAPDH as a control.
On the technique in general: Quantitative PCR measures a nucleic acid by following its amplification.

The term IC50 denotes the concentration at which inhibition is half-maximal. For the molecule `CC(=O)Nc1cn(C)c(C(=O)Nc2cc(C(=O)Nc3cn(C)c(C(=O)Nc4cn(C)c(C(=O)NCCC(=O)Nc5cc(C(=O)Nc6cc(C(=O)NCCCC(=O)Nc7cc(C(=O)Nc8cn(C)c(C(=O)NCCC(=O)Nc9cc(C(=O)Nc%10cc(C(=O)Nc%11ccc%12[nH]c(C(=O)N%13CC(CCl)c%14c%13cc(O)c%13ccccc%14%13)cc%12c%11)n(C)c%10)n(C)c9)n8)n(C)c7)n(C)c6)n(C)c5)n4)n3)n(C)c2)n1` (centres unmarked) [CCC07-01], the “CD8-positive cell/Treg ratio in the spleen” value in experiment [1] (2.3 mg/kg intravenous) was 116.5; in experiment [1] (9.2 mg/kg intravenous), 323.2. For the same molecule, the IC50 stood at 11 nM in experiment [2], 27 nM in experiment [3], 189 nM in experiment [4] and 12 nM in experiment [5]. Besides, in experiment [6], the “expression of CTLA-4” value is “markedly decreased”. Besides, in experiment [7], the “expression of PD-1” value is listed as “markedly decreased”.
